Patent publication US6858632B2, “Derivatives of isosorbide mononitrate and its use as vasodilating agents with reduced tolerance” (Lacer, S.A., priority 1998, dated 2005)
Entries after “also recorded” stand apart in the source; their conditions may differ. Counter-ions that a name gives are not always drawn. Like-named read-outs stand apart in the source and are kept apart here.

How the values were obtained:
[1] = test system: arterial segments of the rats; assay: Assay of tolerance (ex vivo vasodilatation of arterial segments after subcutaneous administration for three days); format: in vivo; settings: for development of tolerance (in words): rats, 10 mg/Kg s.c. each eight hours for three days
Protocol: The different compounds tested are subcutaneously administered to rats at a dose of 10 mg/Kg for three days, each eight hours, and the assay is then done ex vivo to test the capacity to vasodilate the arterial segments of the rats after the subcutaneous administration of the compound.
The method followed is substantially the same as described in following references: • De Garavilla, L., et al. Eur. J. Pharmacol. 1996; 313:89-96. • Keith, R. A., et al. J. Pharmacol. Exp. Ther. 1982; 221:525-531.
The different compounds are tested at 5 different concentrations, at a concentration range from 0.001 to 10 mM, using from 6 to 9 arterial rings for each compound. The obtained results are compared to those from the isosorbide 5-mononitrate, which is used as reference product, and with those obtained from the animals wherein there have not been administered any compound.

[2] = test system: arterial ring previously contracted with 1 μM of Norepinephrine; assay: Test of vasodilatation (arterial rings pre-contracted with norepinephrine); settings: for EC50: read-out: CE50 (concentration effective 50), vasodilatation of 50% of the arterial ring (average ± SD)
Protocol: The method used in the assays is substantially the same as described in following references: • Furchgot, R. F. “Methods in nitric oxide research”. Feelisch & Stamler eds. John Wiley & Sons, Chichester, England, pp 567-581. • Trongvanichnam, K, et al. Jpn J. Pharmacol. 1996; 71:167-173. • Salas, E., et al. Eur. J. Pharmacol. 1994; 258:47-55.
The different compounds are tested at 5 different concentrations, at a concentration range from 0.001 to 10 mM, using from 6 to 9 arterial rings for each compound. The obtained results are compared to those from the isosorbide 5-mononitrate, which is used as reference product.
The results are shown in table 1 below and are provided as CE50 (concentration effective 50), which is the concentration of each of the tested compounds wherein there is produced a vasodilatation of 50% of the arterial ring previously contracted with 1 μM of Norepinephrine.

[3] = arterial ring previously contracted with 1 μM Norepinephrine, 6 to 9 rings, 0.001 to 10 mM

SMILES | EC50 ([1]; Rattus norvegicus, sc, 72 h, read-out: CE50, animals without any compound administrated during three days (Group A) (average ± SD)) [µM] | EC50 at 10 mg/kg ([1]; Rattus norvegicus, sc, read-out: CE50, animals with compound administrated during three days (Group B) (average ± SD)) [µM] | development of tolerance (in words) [1] | EC50 [2] [µM] | vasodilating activity compared with the reference product (in words) ([2]; reference: isosorbide 5-mononitrate) | EC50 ([1]; Rattus norvegicus, sc, 72 h, Group A: rats not given any compound, ex vivo arterial rings, read-out: CE50, animals without any compound administrated during three days (Group A) (average ± SD)) [µM] | EC50 at 10 mg/kg ([1]; Rattus norvegicus, sc, Group B: rats given compound subcutaneously, 10 mg/Kg each eight hours for three days, ex vivo arterial rings, read-out: CE50, animals with compound administrated during three days (Group B) (average ± SD)) [µM] | development of tolerance (in words) ([1]; 10 mg/kg) | EC50 [2, 3] [µM] | EC50 ([1]; Group A: rats not given any compound, ex vivo arterial rings, read-out: CE50, animals without any compound administrated during three days (Group A) (average ± SD)) [µM] | CE50 in treated animals relative to CE50 in not treated animals (times) ([1]; Group B versus Group A) | EC50 ([1]; Group B: rats given compound subcutaneously, 10 mg/Kg each eight hours for three days, ex vivo arterial rings, read-out: CE50, animals with compound administrated during three days (Group B) (average ± SD)) [µM]
CCSc1ncccc1C(=O)O[C@H]1CO[C@H]2[C@@H]1OC[C@H]2O[N+](=O)[O-] [Compound 1, isosorbide 2-(2′-ethylthio)nicotinate 5-mononitrate hydrochloride] | 130 ± 10 | 590 ± 100 | development of less tolerance as compared to the reference product | 130 ± 10 | superior to that of the reference product | – | – | – | – | – | – | –
CC(=O)S[C@H]1CO[C@H]2[C@@H]1OC[C@H]2O[N+](=O)[O-] [Compound 5, 2-acetylmercaptoisosorbide 5-mononitrate] | – | – | – | – | – | 950 ± 100 | 990 ± 100 | development of less tolerance as compared to the reference product; also recorded: practically null | 950 ± 100 | – | – | –
O=[N+]([O-])O[C@@H]1CO[C@H]2[C@@H]1OC[C@@H]2O [isosorbide 5-mononitrate, reference compound] | – | – | strong developments of tolerance | – | – | – | – | – | 920 ± 200 | 920 ± 200 | seven | 6500 ± 1500
